“Also recorded” adds a separate entry of the source. Where two headings read alike, the source gives them in different places.
Key:
CCRF-CEM cell line [1] = experiment: dCK cellular assay: CCRF-CEM proliferation in the presence of dT and dC; type: cell-based, human
Procedure, shortened: (§1)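 Two conditions in T-ALL CCRF-CEM cells: compound only, and compound with thymidine blocking de novo synthesis and deoxycytidine rescuing via dCK. Metabolic dye fluorescence (560/590 nm) gives % proliferation vs DMSO; IC50s, mean ± SD of at least three triplicate runs.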

CCRF-CEM cell line [2] = experiment: CCRF-CEM proliferation, compound alone (nonspecific toxicity); type: cell-based, human; conditions: CCRF-CEM, absence of dT + dC
Procedure, shortened: as §1

CCRF-CEM cells = experiment: Nucleotides pool measurements; type: cell-based, human; conditions: 24 h, dT 200 µM, dC 1 µM, OR0642 1 µM
Procedure: CCRF-CEM cells exposed to compounds (dT (200 µM) and/or dC, OR0642, DI-87 and DI-39 (1 µM)) for 0 and 24 h were washed, counted and pelleted. Pellets were extracted with the cold sampling solution (acetonitrile (4) / methanol (4)/125 mM formic acid (2)), vortexed and placed 1 h at −20 °C. Then centrifuged and evaporated. Central metabolites were separated on an ionic chromatography column IonPac AS11 (250 × 2 mm i.d.; Dionex). Solvent used was KOH at a flow rate of 350 µl/min. The column was then equilibrated for 6 min at the initial conditions before the next sample was analyzed. The volume of injection was 15 µl. High-resolution experiments were performed with an ICS5000+, ion chromatography system (Dionex) system coupled to an Orbitrap Qexactive+ mass spectrometer (Thermo Fisher Scientific, Waltham) equipped with a heated electrospray ionization probe. MS analyses were performed in negative FTMS mode at a resolution of 140,000 (at 400 m/z) in full-scan mode, with the following source parameters: 325 °C for the capillary temperature, 380 °C for the source heater temperature, 50 a.u. (arbitrary unit) for the sheath gas flow rate, 5 a.u. for the auxiliary gas flow rate, 50% for the S-Lens RF level, and 2.75 kV for the source voltage. Metabolites were determined by extracting the exact mass with a tolerance of 5 ppm. Each experiment was performed three times.

[3] = Acute in vivo toxicity, unique IP injection; conditions: male, mouse, in vivo; Swiss mice, IP, unique injection; read-out: Maximum tolerated dose
Procedure: (§2) To evaluate the in vivo toxicity selected compounds were injected by intraperitoneal (IP) route to 7 weeks-old male Swiss mice (n = 2) at 10, 20, 40, 50, or 80 mg/kg by unique injection. […] Compounds were administered in their hydrochloride salt forms. Mice were then observed closely for the next one hour, then every hour for 8 h. Observations were continued for 72 h for signs of pain or toxicity such as change in the behavior and in the activity in the cage (decreased locomotion) or change in the appearance (curved back, eyes half-closed, bristle hair, hips hollowed out). In vivo toxicity of compound OR0642 at 40 and 80 mg/kg was also assessed in the NOD-SCID-IL2Rγc null (NSG) mice model for 2 weeks in the presence and absence of dT to confirm the safety of the compound. […]. Blood samples were collected and spun at 10,000 × g prior to collecting the plasma supernatants. All plasma samples were frozen at −80 °C before sample processing. 13 μl of each plasma sample was mixed with 33 μl of acetonitrile to precipitate proteins and extract the compound. Samples were vortexed for 5 min and then placed in an ultrasonic bath for 1 min. The precipitated proteins were sedimented by centrifugation (15,000 × g, 5 min, 16 °C). Supernatants were transferred to a microplate to be analyzed by LC–MS/MS. All samples were analyzed with a UHPLC coupled to a Shimadzu LC-MS 8030 triple quadrupole. The solutions of a standard range, prepared with plasma from untreated mice, were analyzed in the same series of injections.

[4] = Plasma pharmacokinetics after IP administration; type: in vivo; conditions: male, Swiss, mouse, mice
Procedure: as §2

dCK-C3S-S74E = experiment: Thermal shift assay (TSA)
Chain of dCK-C3S-S74E (P27707 whole entry S74E, form open): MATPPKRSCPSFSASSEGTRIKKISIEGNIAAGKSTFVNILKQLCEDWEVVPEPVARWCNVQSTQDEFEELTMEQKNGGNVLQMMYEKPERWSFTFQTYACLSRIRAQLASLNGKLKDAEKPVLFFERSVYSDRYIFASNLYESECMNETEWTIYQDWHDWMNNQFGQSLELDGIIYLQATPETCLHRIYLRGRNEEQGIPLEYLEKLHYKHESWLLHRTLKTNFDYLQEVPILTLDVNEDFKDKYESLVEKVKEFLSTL

CCCN(c1nc(-c2nc(N)cc(N)n2)cs1)c1cc(-c2ccc(S(=O)(=O)N3CCN(C)CC3)cc2C(F)(F)F)ccc1C [OR0642]
activity at 10 pM (CCRF-CEM cell line [1]; Homo sapiens, CCRF-CEM, 0.01 nM, dT 200 µM + dC 1 µM, read-out: Cell proliferation of the CCRF-CEM cell line Mean (% prolif)): 90.6%
activity at 30 pM (CCRF-CEM cell line [1]; Homo sapiens, CCRF-CEM, 0.03 nM, dT 200 µM + dC 1 µM, read-out: Cell proliferation of the CCRF-CEM cell line Mean (% prolif)): 93.3%
activity at 91 pM (CCRF-CEM cell line [1]; Homo sapiens, CCRF-CEM, 0.091 nM, dT 200 µM + dC 1 µM, read-out: Cell proliferation of the CCRF-CEM cell line Mean (% prolif)): 88.7%
activity at 0.00027 µM (CCRF-CEM cell line [1]; Homo sapiens, CCRF-CEM, 0.27 nM, dT 200 µM + dC 1 µM, read-out: Cell proliferation of the CCRF-CEM cell line Mean (% prolif)): 87.2%
activity at 0.00082 µM (CCRF-CEM cell line [1]; Homo sapiens, CCRF-CEM, 0.82 nM, dT 200 µM + dC 1 µM, read-out: Cell proliferation of the CCRF-CEM cell line Mean (% prolif)): 79.7%
activity at 0.0025 µM (CCRF-CEM cell line [1]; Homo sapiens, CCRF-CEM, 2.5 nM, dT 200 µM + dC 1 µM, read-out: Cell proliferation of the CCRF-CEM cell line Mean (% prolif)): 68.2%
activity at 0.0074 µM (CCRF-CEM cell line [1]; Homo sapiens, CCRF-CEM, 7.4 nM, dT 200 µM + dC 1 µM, read-out: Cell proliferation of the CCRF-CEM cell line Mean (% prolif)): 43.1%
activity at 0.022 µM (CCRF-CEM cell line [1]; Homo sapiens, CCRF-CEM, 22 nM, dT 200 µM + dC 1 µM, read-out: Cell proliferation of the CCRF-CEM cell line Mean (% prolif)): 24.9%
activity at 0.067 µM (CCRF-CEM cell line [1]; Homo sapiens, CCRF-CEM, 67 nM, dT 200 µM + dC 1 µM, read-out: Cell proliferation of the CCRF-CEM cell line Mean (% prolif)): 18%
activity at 0.2 µM (CCRF-CEM cell line [1]; Homo sapiens, CCRF-CEM, 200 nM, dT 200 µM + dC 1 µM, read-out: Cell proliferation of the CCRF-CEM cell line Mean (% prolif)): 14.6%
IC50 (CCRF-CEM cell line [1]; Homo sapiens, CCRF-CEM, dT 200 µM + dC 1 µM, 72 h, read-out: IC50 cell proliferation (dCK cellular assay)): 2.2 nM
increased potency in the cell proliferation assay (CCRF-CEM cell line [1]; compared with dCKi1): more than 1000 times
potency increase (CCRF-CEM cell line [1]; compared with masitinib): more than 1000 times
nonspecific cellular toxicity (CCRF-CEM cell line [2]): lack of non-specific toxicity; also recorded: absence of nonspecific toxicity
effect on nucleotide pools (CCRF-CEM cells): did not affect the nucleotide pools
MTD at 72 h [3]: > 80 mg/kg
Cmax ([4]; dose 20 mg/Kg): 800 ± 200 nM
Tmax ([4]; dose 20 mg/Kg): 2 h
half-life ([4]; dose 20 mg/Kg, read-out: T ½ (converted)): 420 ± 180 min
Cmax ([4]; dose 40 mg/Kg): 4100 ± 1500 nM
Tmax ([4]; dose 40 mg/Kg): 5 h
half-life ([4]; dose 40 mg/Kg, read-out: T ½ (converted)): > 480 min
half-life ([4]; read-out: half-life): > 420 min
ΔTm, dCK thermal stabilization (TSA) (dCK-C3S-S74E; 5 μM protein, 50 μM compound): 22.2 °C
ΔTm (º) (TSA) (dCK-C3S-S74E; Figure 2a, mean): 22.23 º
Thermal Shift Assay Mean (ΔTm (º)) (dCK-C3S-S74E; Figure 2b): 22.2 º
improved dCK thermal stability (dCK-C3S-S74E; compared to dCKi1): 7.9 °C
improved dCK thermal stability (dCK-C3S-S74E; compared to masitinib): 15 °C
THERMAL SHIFT ASSAY +Tm (°) (dCK-C3S-S74E; mean ± SD): 22.2 ± 0.9 °

From PMC10227015, “From a drug repositioning to a structure-based drug design approach to tackle acute lymphoblastic leukemia” (Nature Communications, 2023)
